The source of these data is publication PMC3909100, “Biochemical, Stabilization and Crystallization Studies on a Molecular Chaperone (PaoD) Involved in the Maturation of Molybdoenzymes” (PLoS ONE, 2014).

The target in series [1] is T1, PaoD (Escherichia coli, UniProt P77183).
T1 construct: full length, expressed from plasmid pMN87 in E. coli BL21(DE3), Ni-TED purified (tag not described); dimer in solution
T1 sequence (P77183 1-318): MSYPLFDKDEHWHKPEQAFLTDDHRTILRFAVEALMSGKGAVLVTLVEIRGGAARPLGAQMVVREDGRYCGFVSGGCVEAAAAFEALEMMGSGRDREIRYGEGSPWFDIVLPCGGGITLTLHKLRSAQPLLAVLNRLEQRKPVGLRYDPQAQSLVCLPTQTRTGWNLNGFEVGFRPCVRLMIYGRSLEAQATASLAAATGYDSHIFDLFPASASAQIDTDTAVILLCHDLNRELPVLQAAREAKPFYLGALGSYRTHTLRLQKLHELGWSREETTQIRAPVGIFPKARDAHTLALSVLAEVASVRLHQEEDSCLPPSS
Nature of the series: STD-NMR. In kind it is binding. The conditions noted are these: ca 30 µM PaoD, 3 mM ionic liquid, 50 mM Tris-HCl, 1 mM EDTA, 300 mM NaCl, pH 8.0, 310 K; signals from cation ring protons; weak surface interaction.

Series [2] deals with T1, PaoD. Kind of series: ultrafiltration, bound cofactor oxidized to Form A, HPLC fluorescence. In kind it is binding. The conditions noted are these: 12 µM PaoD, 0-48 µM cofactor, 100 mM Tris-HCl, 300 mM NaCl, pH 7.2, 277 K.
Series [3] concerns the molecule itself. Nature of the series: SEC; freshly purified PaoD on Superdex 75 HR10/30, 50 mM Tris-HCl, 300 mM NaCl, pH 8.0, 283 K, 0.5 mL/min; column calibrated with Bio-Rad standards. In general terms: In gel filtration, larger molecules generally elute earlier.

Values joined by “and” are separate entries in the source; they are usually repeats but may differ in a detail not shown here. Identical values can stand only once.

Consider `CCCC[n+]1ccn(C)c1` [[C4mim]Cl], for which the STD-NMR entry on PaoD [1] is “aromatic protons of the cation were detected both for [C2OHmim]PF6 and [C4mim]Cl”. As for `Nc1nc2c(c(=O)[nH]1)N[C@H]1C(S)=C(S)[C@@H](COP(=O)(O)O)O[C@H]1N2` [MPT], at PaoD [2], the “ultrafiltration, bound cofactor oxidized to Form A, HPLC fluorescence” value is “The obtained chromatograms showed that Mo-MPT and MPT was bound to PaoD”. As to `C[n+]1ccn(CCO)c1` [[C2OHmim]PF6], the STD-NMR entry on PaoD [1] was “aromatic protons of the cation were detected both for [C2OHmim]PF6 and [C4mim]Cl”.

B1: PaoD (natural protein, Escherichia coli, UniProt P77183 1-318, looked up)
chain: T1 sequence (P77183 1-318)
notes: PaoD, XdhC-like molecular chaperone of the periplasmic aldehyde oxidoreductase PaoABC, last gene of the paoABCD operon of Escherichia coli; calculated mass 34.8 kDa; the tag is inferred from the Ni-TED column and imidazole elution; also called molecular chaperone PaoD; E. coli PaoD; source: E. coli BL21(DE3), plasmid pMN87, purified (Ni-TED chromatography)
Turning to B1, the “stoichiometry N” value in series [3] is 2 and 4.

The term stoichiometry N denotes the number of molecules, sites or subunits per partner or assembly.
